Measured values taken from article PMC6646960 (ACS Chemical Biology, 2019).

Target: T1, DC-SIGN (Homo sapiens, UniProt Q9NNX6)
T1 sequence (Q9NNX6 254-404): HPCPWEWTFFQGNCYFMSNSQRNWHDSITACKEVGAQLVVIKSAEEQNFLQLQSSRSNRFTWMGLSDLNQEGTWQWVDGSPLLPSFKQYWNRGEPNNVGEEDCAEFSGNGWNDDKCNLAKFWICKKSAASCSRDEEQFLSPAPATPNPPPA
Assay: 1H-15N HSQC NMR titration
Type: binding

Kd: 4.1 ± 0.7 mM
Structure (SMILES): C[C@@H]1OC(O)[C@@H](O)[C@H](O)[C@@H]1O (stereo partly shown) [compound 4, Fuc]
